Results reported in patent US4000297A, “N-p-chlorobenzoyl tryptophane, salts and compositions thereof” (priority 1971, dated 1976).
Structures can show the parent of a compound that is named as a salt. Where two headings read alike, the source gives them in different places.

Experiments:
[1] = system: transit through the stomach and intestine; test: Anti-spastic activity, vegetable carbon (charcoal) test, rate of transit through the stomach and intestine; format: in vivo, mice; conditions: for Antispastic activity, in words: in vivo; for ED50: Mus musculus, 2 h; for Ratio 3/2: anti-secretive ED50 / anti-spastic ED50 (Table 3)
Protocol: Particularly marked is the anti-spastic activity which the present compounds exercise on the entire digestive system. Measured in the mouse, using the vegetable carbon test (rate of transit through the stomach and intestine), this activity is in some cases comparatively greater than the anti-secretive activity (Table 3).
(*)The antispastic activity is measured in mice of an average weight of […]
± 3 g by administering a suspension of charcoal in gum arabic and
checking after two hours whether the charcoal has reached the initial
portion of the colon. In non-treated subjects the charcoal reaches this
transit of the charcoal. Evaluation of the results is effected as
ED50 in mg/kg body weight of the animal, i.e., the dose at which the […]

[2] = system: gastric lesions from Indomethacin; test: Protective activity against gastric lesions due to Indomethacin; format: in vivo, rats; conditions: oral; for ED50: Rattus norvegicus, po, 4 h, read-out: Protective activity ED50
Protocol: The activity is defined as the dose in mg/kg of body weight to the animal, which prevents in 50% of the treated subjects arising of lesions due to Indomenthacin.
The protective preparations are administered orally in aqueous suspension.

gastric secretion [3] = test: Comparison of antisecretive activity, rats with tied pylorus, oral aqueous suspension; format: in vivo; conditions: oral; for ED50: Rattus norvegicus, po, read-out: Antisecretive activity (dose which reduces the gastric secretion by 50%)
Protocol: (*)The antisecretive activity is defined as the dose in mg/kg of body
weight of the animal, which reduces the gastric secretion by 50%. The
evaluation is effected by considering the decrease in quantity of secrete
gastric juice as compared with controls. Rats of an average weight of 200
± 20 grams are employed of which the lower part of the stomach at the
level of the pylorus is tied to collect the gastric juice during the
indicated periods. The preparations are administered orally in the form o

[4] = Stability in conventional preservation tests and light sensitiveness; format: physicochemical; conditions: oral forms (capsules, tablets)
Solubility = format: physicochemical; conditions: for Solubility in water: in words
[5] = Tolerability in humans, prolonged oral administration; format: in vivo; conditions: several weeks, 500 to 1600 mg
[6] = dog, in vivo, po
[7] = Acute toxicity (DL50) in the mouse; format: in vivo; conditions: in vivo
From the text: *1 DL50 in the mouse mg/kg iv.
Examples of differences between toxicity (DL50 in
the mouse) by intravenous administration and oral
administration in mg/kg. Variation in therapeutic

gastric secretion [8] = test: Anti-secretive activity in the rat by gastric stimulus, oral; format: in vivo; conditions: oral (Table 1), read-out: Activity B: anti-secretive activity ED50
Protocol: *3 Anti-secretive activity in the rat by gastric stimulus, ED50 mg/k

gastric secretion [9] = test: Anti-secretive activity in the rat with lig. pylorus, iv; format: in vivo; conditions: for Therapeutic coefficient iv. 2/3: DL50 iv / ED50 iv (Table 2)
gastric secretion [10] = test: Anti-secretive activity, oral (comparison of iv and oral therapeutic coefficient); format: in vivo; conditions: oral (Table 2)
From the text: | *6 Anti-secretive activity ED50 oral | *7 Therapeutic coefficient oral

[11] = rat, in vivo, po
[12] = mouse, vegetable carbon test (Table 3), read-out: Anti-spastic activity ED50
[13] = po, charcoal after two hours, orally (later Table 3), read-out: Antispastic activity ED50
[14] = iv (Table 1), read-out: DL50 value
[15] = oral (Table 2), read-out: DL50 oral
[16] = Rattus norvegicus, iv, i.v. (Table 2), read-out: Anti-secretive activity ED50 i.v.
[17] = rat with lig. pylorus, iv (Table 1), read-out: Activity A: anti-secretive activity ED50
[18] = Rattus norvegicus, iv, read-out: Activity A: anti-secretive activity ED50
[19] = Rattus norvegicus, iv, read-out: Anti-secretive activity ED50 i.v.
[20] = iv, iv (Table 1), read-out: DL50 value
[21] = Rattus norvegicus, iv, read-out: Anti-secretive activity ED50

Compound | ED50 [1, 12] [mg/kg] | ED50 [1, 13] [mg/kg] | Ratio 3/2 [1] | ED50 (gastric secretion [8]) [mg/kg] | Therapeutic coefficient iv. 2/3 (gastric secretion [9]; iv) | ED50 (gastric secretion [10]) [mg/kg] | Therapeutic coefficient oral (gastric secretion [10]) | ED50 ([2]; Indomethacin 16 mg/kg orally) [mg/kg] | ED50 (gastric secretion [3]; 2.5 h, 2.5 hrs) [mg/kg] | ED50 (gastric secretion [3]; 5 h, 5 hrs) [mg/kg] | ED50 (gastric secretion [3]; 10 h, 10 hrs) [mg/kg] | ED50 (gastric secretion [9]; [18]) [mg/kg] | ED50 (gastric secretion [9]; [19]) [mg/kg] | ED50 (gastric secretion [3]; 15 h, 15 hrs) [mg/kg] | LD50 [7, 20] [mg/kg] | also measured
O=C(N[C@@H](Cc1c[nH]c2ccccc12)C(=O)O)c1ccc(Cl)cc1 [CR 501 calcium salt, N-p-chloro-benzoyl-L-tryptophane calcium salt] | – | – | – | – | – | – | – | – | – | – | – | – | – | – | – | Antispastic activity ED50 ([1]; charcoal after two hours, orally (later Table 3), 120 min, calcium salt, 120 min): 210 mg/kg; Antispastic activity, in words ([1]; mouse, calcium salt): more particularly effective as antispastic; Protective activity ED50 ([2]; Indomethacin 16 mg/kg orally, 240 min, calcium salt): 145 mg/kg/os; Antisecretive activity (dose which reduces the gastric secretion by 50%) (gastric secretion [3]; 2.5 hrs, calcium salt, 150 min): 210 mg/kg; Antisecretive activity (dose which reduces the gastric secretion by 50%) (gastric secretion [3]; 5 hrs, calcium salt, 300 min): 165 mg/kg; Antisecretive activity (dose which reduces the gastric secretion by 50%) (gastric secretion [3]; 10 hrs, calcium salt, 600 min): 142 mg/kg; Antisecretive activity (dose which reduces the gastric secretion by 50%) (gastric secretion [3]; 15 hrs, calcium salt, 900 min): 170 mg/kg; Light sensitiveness [4]: absence of light sensitiveness; Stability on conventional preservation tests [4]: thorough stability; Solubility in acetone (Solubility; acetone): soluble; Solubility in ethanol (Solubility; ethanol, listed as Example 53, calcium salt): soluble; Solubility in methanol (Solubility; methanol, listed as Example 53, calcium salt): soluble; Solubility in water (Solubility; listed as Example 53, calcium salt): Very slightly soluble; Side effects in humans [5]: does not lead to any specific side effect
O=C(N[C@@H](Cc1c[nH]c2ccccc12)C(=O)O)c1ccc(Cl)cc1 [Ex.18 (CR501), N-p-chloro-benzoyl-L-tryptophane] | 82 | 248 | 1.7 | 110 | 1.9 | 150 | 7.3 | 234 | 171 | 143 | 150 | – | – | – | – | Acute and chronical toxicity [6]: without exhibiting any appreciable symptom of toxicity; Antispastic activity, in words ([1]; mouse): active as antispastic; LD50 [7, 14]: 263 mg/kg; LD50 [7, 15]: 1100 mg/kg; ED50 (gastric secretion [9]; Rattus norvegicus, iv, compared with anti-spastic activity (Table 3), read-out: Anti-secretive activity ED50): 139 mg/kg; ED50 (gastric secretion [9]; [16]): 139 mg/kg; ED50 (gastric secretion [9]; [17]): 139 mg/kg; Protective activity against Indomethacin lesions, in words [2]: efficient activity in preventing gastric lesions; Start of antisecretive activity from administration (gastric secretion [3]): < 5 h; Antisecretive activity (dose which reduces the gastric secretion by 50%) (gastric secretion [3]; 15 hrs, 900 min): 361 mg/kg; Extent in time of antisecretive activity (gastric secretion [3]; with a gradual sinking): up to 15 hours; Acute and chronical toxicity [11]: without exhibiting any appreciable symptom of toxicity; Solubility in water (Solubility; listed as CR 501): water-insoluble; Solubility in water (Solubility; listed as CR501): insoluble in water
Cc1ccc(C(=O)N[C@@H](Cc2c[nH]c3ccccc23)C(=O)O)cc1 [Ex.21 (CR510), N-p-toluyl-L-tryptophane] | – | 487 | – | 318 | 3.8 | 346 | 5.8 | 382 | 490 | 407 | 346 | 184 | 184 | 583 | – | LD50 [7, 14]: 700 mg/kg; LD50 [7, 15]: 2000 mg/kg
COc1ccc(COC(=O)N[C@@H](Cc2c[nH]c3ccccc23)C(=O)O)cc1 [Ex.32 (CR462), N-p-methoxy-carbobenzoxy-L-tryptophane] | – | – | – | 114 | 3.2 | 142 | – | – | – | – | – | – | – | – | 430 | ED50 (gastric secretion [9]; [16]): 133 mg/kg; ED50 (gastric secretion [9]; [17]): 146 mg/kg
O=C(N[C@@H](Cc1c[nH]c2ccccc12)C(=O)O)OCc1ccc(Cl)cc1 [Ex. 1 (CR449), N-p-chloro-carbobenzoxy-L-tryptophane] | 72 | – | 1.8 | 127 | 1.8 | 154 | 9.1 | 182 | 121 | 98 | 115 | 131 | 131 | 155 | 240 | LD50 ([7]; po, oral (Table 2), read-out: DL50 oral): 1410 mg/kg; ED50 (gastric secretion [9]; [21]): 131 mg/kg
O=C(N[C@@H](Cc1c[nH]c2ccccc12)C(=O)O)OCc1ccc(Br)cc1 [Ex. 6 (CR451), N-p-bromo-carbobenzoxy-L-tryptophane] | – | 275 | – | 77 | 1.9 | 133 | – | 335 | 180 | 148 | – | 92.1 | 99 | 405 | 125 | LD50 ([7]; iv, iv (Table 2), read-out: DL50 iv): 185 mg/kg; Antisecretive activity (dose which reduces the gastric secretion by 50%) (gastric secretion [3]; 10 hrs, listed as CR 451 (Ex. 6), 600 min): 133 mg/kg
Cc1ccc(COC(=O)N[C@@H](Cc2c[nH]c3ccccc23)C(=O)O)cc1 [Ex. 9 (CR454), N-p-methyl-carbobenzoxy-L-tryptophane] | 120 | – | 1.6 | 125 | 1.9 | 268 | – | – | – | – | – | 187 | 166 | – | 320 | ED50 (gastric secretion [9]; [21]): 187 mg/kg
